Here are results for two molecules from patent US11472752B2, “Method for making resistant to thiodicarb (carbamate) and bifenthrin (pyrethroid) a consortium of fungi that solubilise phosphorous and antagonise certain pathogens, for use in liquid biofertilisers for foliar and/or soil application” (priority 2018, dated 2022).

Holding throughout (test): Stagewise adaptation on growth media poisoned with thiodicarb or bifenthrin; mortality rate
Common to all, as to assay type: cell-based

In data set [1] the test system is Beauveria bassiana. The conditions noted are these: for Resistant to: FINAL: final characteristics after selective process. The method, then:
(§1) Strains of sulphur sulubilizer fungi, antagonist to some pathogens: • a) Paecilomyces sp. • b) Beauveria bassiana • c) Trichoderma harzianum • d) Metarhizium anisopliae Preparation for Stage Development 1. Glass material is sterilized in an autoclave. 2. The required amount of growth media is prepared with 3% rice broth (P/V), and 9% of a solution of molasses, sterilized at 121° C. for 15 minutes at a pressure of 15 lb. 3. Lethal dose (LD) applied to a hectare is established, for thiodicarb as well as bifenthrin. 10 Petri dishes are prepared with 0.1 LD of thiodicarb of bifenthrin. Dishes are incubated at 25° C. for 72 hours with cold light. 4. From the previous suspension with a known concentration, (107) the growth media is seeded with 1 ml, the pH adjustment is performed at 5.5 with a sterile 10 citric acid solution. 5. Stir at 110 rpm and 27 OC for 7 days. 6. The process is monitored controlling the variables, mainly the pH and biomass concentration, adjusting the pH to 5.5 during the entire process. 7. On the fourth day of the process, the foam formation is controlled with 1% soy oil and the stirring speed. Methodology a. Petri dishes are placed inside the laminar flow chamber along with the diluted samples, to seed microorganisms in the dishes, a one ml sample of the strain is taken with an automated pipette, 10^−1 and 10^−2 solutions are performed, and each solution is homogenized. b. Having the petri dishes with the sterile and cold growth media, it is homogenized with 6 right to left movements, 6 clockwise movements, 6 counterclockwise movements and 6 front to back movements over a flat horizontal surface until the inoculum is completely integrated into the media, stand until it solidifies and each dish is covered with parafilm to avoid contamination during incubation. c. Dishes with thiodicarb and Bifenthrin are placed inside the incubator at 25° C. for 72 hours with a cold light lamp. d. Inoculated dishes are incubated for 15 days, the product concentration impact is determined on mycelial growth, sporulation and germination (12 hours of incubation). e. The residual impact of the product is reviewed after 7 days in the malt agar, dextrose and PDA agar media, enriched with minerals. f. If there is no growth over 10%, the process is repeated until a mortality under 90% is obtained. g. […] After that, the suspension is stirred for 30 seconds in a Vortex tube mixer. The spore concentration is measured in a Newbawer Chamber and the results are reported in conidia per […]. i. From the 10 Petri dishes for each microorganism, the one with the lowest mortality rate is the one that will continue with the following study. j. The study is performed again using this percentage until coverage increases and so on, the addition of thiodicarb and bifenthrin is alternated with the LD in intervals of 0.1 LD; all these experiments have been designed with the experimental strains and a control. k. With the data obtained from the mycelial growth and sporulation, the percentage of inhibition of gradual growth is obtained, the data is transformed for its analysis with the expression 2 arc sin, and the sporulation through the equation Log 10(x+10). A two-way classification analysis of variance is applied and later the Turkey test is performed using a 5% probability.
(§2) For each species, stages analyzing times required to cover the entire field were performed. Once this time was determined, they were left to rest for 10 days to be later subject to the following protocol:
Stages begin with the conditions in its natural habitat: pH—7.0 a 7.5, Humidity: 30 to 40% and humidity is increased up to 70% and a Temperature from 28 to 30° C., maintained during all the research term. These conditions are the starting point to adapt the strain to thiodicarb (carbamate) and bifenthrin (pyrethroid). During all stages, we will be using a cold light lamp to adapt the microorganism to sunlight.

Data set [2] has as its system Metarhizium anisopliae. The note with it: for Resistant to: FINAL: final development characteristics. The procedure: as §1
(§3) For each species, stages analyzing times required to cover the entire field were performed. Once this time was determined, they were left to rest for 10 days to be later subject to the following protocol: […]

Data set [3] concerns Paecilomyces sp. The method, then: Strains of sulphur sulubilizer fungi, antagonist to some pathogens: • a) Paecilomyces sp. • b) Beauveria bassiana • c) Trichoderma harzianum • d) Metarhizium anisopliae Preparation for Stage Development 1. Glass material is sterilized in an autoclave. 2. The required amount of growth media is prepared with 3% rice broth (P/V), and 9% of a solution of molasses, sterilized at 121° C. for 15 minutes at a pressure of 15 lb. 3. Lethal dose (LD) applied to a hectare is established, for thiodicarb as well as bifenthrin. 10 Petri dishes are prepared with 0.1 LD of thiodicarb of bifenthrin. Dishes are incubated at 25° C. for 72 hours with cold light. 4. […] The process is monitored controlling the variables, mainly the pH and biomass concentration, adjusting the pH to 5.5 during the entire process. […] Inoculated dishes are incubated for 15 days, the product concentration impact is determined on mycelial growth, sporulation and germination (12 hours of incubation). e. […] The spore concentration is measured in a Newbawer Chamber and the results are reported in conidia per square millimeter. i. […]
as §3

In data set [4] the test system is Trichoderma harzianum. The method, then: as §1, §2
Procedures begin with the conditions in its natural habitat: Humidity: 30 to 40% and humidity is increased up to 70% and a Temperature from 28 to 30° C., maintained during all the research term. pH from 7.0 to 7.5. These conditions are the starting point to adapt the strain to thiodicarb and bifenthrin.

The mark [5] stands for this setting: stages E-33 and E-34, 0.9 LD (0.00016 gr).
The mark [6] stands for this setting: stages E-35 and E-36, 1 LD (0.00018 gr).
Where [7] appears, read: stages E-3 and E-4, 0.2 LD (0.000035 gr).
The mark [8] stands for this setting: stages E-25 and E-26, 0.7 LD (0.00012 gr).
Setting [9] is: stages E-43 and E-44, 1.2 LD (0.00022 gr).
Where [10] appears, read: stages E-49 and E-50, 1.1 LD (0.00024 gr).
[11] abbreviates: stages E-51 and E-52, 1.2 LD (0.00026 gr).

As to `Cc1c(COC(=O)[C@@H]2[C@H](/C=C(\Cl)C(F)(F)F)C2(C)C)cccc1-c1ccccc1` (racemic) [bifenthrin, 2-methyl biphenyl-3-ilmetil(2)-(1RS,3RS)-3-(2-chlorine 3,3,3-trifluoropropene)-2,2-dimethyl-cyclo-propane-carboxylate], the “Resistant to: FINAL” value in data set [1] is recorded as 1 LD of thiodicarb; in data set [2], 1.3 LD of.

On to `CS/C(C)=N\OC(=O)N(C)SN(C)C(=O)O/N=C(\C)SC` [thiodicarb], for which the mortality rate is reported as 8% in data set [3] (setting [5]); 15% in data set [3] (setting [6]); 73% in data set [1] (stages E-1 and E-2, 0.1 LD (0.0000175 gr), 32% humidity); 73-79% in data set [1] (setting [7]); 23% in data set [1] (setting [8]); 26% in data set [1] (setting [6]). Besides, the mortality rate in data set [1] (setting [9]) was determined as 20%; in data set [1] (setting [10]), 14%; in data set [1] (setting [11]), 11%; in data set [4] (stage E-1, 0.1 LD (0.0000175 gr), until day 68 of incubation), 82%; in data set [4] (stage E-2, 0.1 LD (0.0000175 gr)), 85%; in data set [4] (stages E-11 and E-12, 0.4 LD (0.000070 gr)) it was 75%. Moreover, the mortality rate in data set [4] (stages E-19 and E-20, 0.6 LD (0.00011 gr)) is listed as 66%; in data set [4] (setting [8]), 60%; in data set [4] (setting [9]), 18%; in data set [4] (setting [10]), 10%; in data set [4] (setting [11]), 8%; in data set [2] (setting [7]), 55%. The mortality rate in data set [2] (setting [5]) and in data set [2] (setting [6]) was 15% throughout. In addition, the figures for the “Resistant to: FINAL” value in data set [1] and in data set [2] were 1 LD of thiodicarb and 1.3 LD of, respectively.
